Source: patent publication US20170045520A1, “METHOD FOR PREDICTING RESPONSE TO THERAPY FOR CANCER” (National University of Singapore, priority 2014, published 2017)
Read-outs that look alike come from different tables or passages of the source.

Test system: WBP2 overexpressing cancer cells
Experiment: Drug sensitivity of cells overexpressing WT ITCH versus C830A or E855K mutant ITCH to Wnt inhibitors
Assay type: cell-based
Protocol: This was indeed the case for up to 0.0001 μM and 5 μM for FH535 and C59, respectively, but above these doses, the distinction was lost probably as a result of non-specific cytotoxicity (FIGS. 8 and 9). This implies that ITCH inactivating mutations could be used to predict for response to Wnt inhibitors especially in cancers that are dependent on WBP2.

[1] = WT ITCH vs C830A or E855K mutant ITCH overexpression, FIGS. 8 and 9

Cc1cc([N+](=O)[O-])ccc1NS(=O)(=O)c1cc(Cl)ccc1Cl [FH535]
dose up to which the difference in sensitivity between WT ITCH and mutant ITCH cells held (above it the distinction was lost, probably non-specific cytotoxicity) [1]: up to 0.0001 μM
sensitivity of cells to the Wnt inhibitor when WT ITCH is overexpressed (low WBP2) compared to when C830A or E855K mutant is overexpressed (high WBP2) [1]: less sensitive

Cc1cc(-c2ccc(CC(=O)Nc3ccc(-c4cccnc4)cc3)cc2)ccn1 [C59]
dose up to which the difference in sensitivity between WT ITCH and mutant ITCH cells held (above it the distinction was lost, probably non-specific cytotoxicity): ≤ 5 µM
sensitivity of cells to the Wnt inhibitor when WT ITCH is overexpressed (low WBP2) compared to when C830A or E855K mutant is overexpressed (high WBP2) [1]: less sensitive
